According to patent US20050171028A1, “Thioketals and thioethers for inhibiting the expression of VCAM-1” (Atherogenics Pharmaceuticals, Inc., priority 2000, published 2005):

What was measured:
Assay type in all cases: cell-based
VCAM-1 = VCAM-1 assay: enzyme immunoassay of TNF-alpha induced VCAM-1 expression in endothelial cells; details: Homo sapiens, Endothelial cell; HAEC stimulated with TNF-alpha (1 ng/ml), about 16 hours with compound; read-out: VCAM-1 IC50 or % inhibition at
Procedure: The VCAM-1 assay is an enzyme immunoassay to detect tumor necrosis factor alpha (TNF-alpha) induced Vascular Cell Adhesion Molecule (VCAM-1) expression in endothelial cells.
(§1) Human aortic endothelial cells (HAEC) were purchased from Clonetics and maintained in EGM media (Clonetics) supplemented with 5% fetal bovine serum (FBS). In a typical experiment, cells were seeded in 96-well plates. The next day cells were stimulated with TNF-alpha (1 ng/ml) purchased from Boehringer Mannheim in the presence or absence of compounds dissolved in dimethylsulphoxide (DMSO). To establish a dose curve for each compound, four concentrations in 2 fold increments were used. Cells were exposed to TNF-α and compounds for approximately 16 hours. The next day, cells were examined under microscope to score for visual signs of toxicity.
Media was discarded and the cells were washed once with Hanks buffered saline solution (HBSS)/phosphate buffered solution (PBS) 91:1). Primary mouse monoclonal antibody against VCAM-1 purchased from Southern Biotechnology Associates (0.25 μg/ml in HBSS/PBS+5% FBS) was added and incubated at 37° C. for 30 minutes. Cells were washed with HBSS/PBS three times, and secondary antibody horse radish peroxidase (HRP)-conjugated goat anti-mouse IgG purchased from Southern Biotechnology Associates (1:500 in HBSS/PBS+5% FBS) was added and incubated at 37° C. for 30 minutes. Cells were washed with HBSS/PBS four times and peroxidase substrate 3.3′,5,5′-tetramethyl-benzidine (TMB) was added and incubated in the dark at room temperature until there was adequate blue color development. The length of incubation time was typically 5-15 minutes. 2 N sulfuric acid was added to stop the color development and the data was collected by reading the absorbance at O.D. 450 nm. The result was expressed as the percentage of control sample (cells stimulated by TNF without any compound).
(§2) The degree of inhibition of various compounds, including the compounds prepared in the foregoing examples, using the assays described in Examples 6-9, are provided in Table IX. Results are expressed in micromolar quantities.

[1] = system: Human aortic endothelial cells (HAEC); assay: LD50 (toxicity to cells; visual signs of toxicity scored in the VCAM-1 assay)
Procedure: as §1, §2

ApoB/HepG2 = assay: Lipid screen: ApoB ELISA on media of treated HEPG2 cells; details: Homo sapiens; HEPG2 cells treated 24 hours; ApoB accumulation in media as percentage of control; read-out: ApoB/Hep G2 IC50 or % inhibition at
Procedure: HEPG2 cell was started in 10 ml of MEM, 10% FBS, 1 mM Sodium Pyruvate. The cells were incubated in a tissue culture incubator. The cells were split into 4×96-wells plate in MEM, 10% FBS, 1 mM Sodium Pyruvate and allowed to grow to about 50% confluency and then removed.
The cells were treated with the desired concentration of compounds in 100 μl DMEM, 1% RSA for 24 hours. The compounds are dissolved in DMSO.
On the same day, 4×96-wells NuncImmunoSorb plate is coated with 100 μl of mouse anti-human ApoB monoclonal 1D1 (1:1000 dilution in 1×PBS, pH 7.4). The coating is allowed to stand overnight.
The coated plate is washed 3 times with 1×PBS, pH 7.4, −0.05% Tween 20. 100 μl of the standards is added to the selected wells. ApoB standards are prepared at 6.25, 3.12, 1.56, 0.78, 0.39 ng, and each concentration is done in triplicates.
90 μl of 1×PBS, pH 7.4, −0.05% Tween 20 is added to each well corresponding to the sample. 10 μl of media is transferred from the treated HEPG2 plates to the ApoB ELISA plate. The plate is incubated at room temperature for 2 hours, rocking gently.
Wash the coated plate 3× with 1×PBS, pH 7.4, −0.05% Tween 20. Add 100 μl of sheep anti-human ApoB polyclonal from Boehringer Mannheim. (1:2000 dilution in 1×PBS, pH 7.4, −0.05% Tween 20). Incubate at room temperature for 1 hour, rocking gently. Wash the coated plate 3× with 1×PBS, pH 7.4, −0.05% Tween 20. Add 100 μl of rabbit anti-sheep IgG (1:2000 dilution in 1×PBS, pH 7.4, −0.05% Tween 20). Incubate at room temperature for 1 hour, rocking gently. Wash the coated plate 3× with 1×PBS, pH 7.4, −0.05% Tween 20. Add 100 μl of substrate (10 ml of distilled water, 100 μl of TMB (10 mg/ml), and 1 μl of hydrogen peroxide). Allow color to emerge and stop reaction with 25 ul of 8N sulfuric acid. Wells are read with MicroPlate Reader @ […]. Graph accumulation of ApoB in media as a percentage of control for each sample and their concentration. A determination of IC50 is obtained from the graph.

| Compound | IC50 (VCAM-1) [µM] | LD50 at [1] [µM] | IC50 (ApoB/HepG2) [µM] |
| --- | --- | --- | --- |
| CC(C)(Sc1cc(C(C)(C)C)c(O)c(C(C)(C)C)c1)Sc1cc(C(C)(C)C)c(OCC(O)COC(=O)C(O)C(O)C(O)C(O)CO)c(C(C)(C)C)c1 (centres unmarked) | 7 | 50.0 | 30 |
| CCN(CC)C(=O)c1ccc(CSc2cc(C(C)(C)C)c(O)c(C(C)(C)C)c2)cc1 | 12.5 |  | 40 |
| CC(C)(Sc1cc(C(C)(C)C)c(O)c(C(C)(C)C)c1)Sc1cc(C(C)(C)C)c(OCC2OC(O)[C@@H](O)[C@H]2O)c(C(C)(C)C)c1 (some centres unmarked) | 8 |  |  |
| CC(C)(Sc1cc(C(C)(C)C)c(O)c(C(C)(C)C)c1)Sc1cc(C(C)(C)C)c(OC[C@@H](O)[C@@H](O)[C@@H](O)CO)c(C(C)(C)C)c1 | 12.5 | 25.0 | 6 |
| CC(C)(Sc1cc(C(C)(C)C)c(O)c(C(C)(C)C)c1)Sc1cc(C(C)(C)C)c(OCC(O)CS(=O)(=O)O)c(C(C)(C)C)c1 (centres unmarked) | 10 | 50.0 |  |
| CN(C)C(=O)c1ccc(CSc2cc(C(C)(C)C)c(O)c(C(C)(C)C)c2)cc1 | 12.5 | 50.0 | 85 |
